Experimental data as given in publication PMC10403513, “Tasmanian devil cathelicidins exhibit anticancer activity against Devil Facial Tumour Disease (DFTD) cells” (Scientific Reports, 2023).
Read-outs that look alike come from different tables or passages of the source. No end group written: not given here.

Key:
DFT1 1426 cells [1] = experiment: RNAseq differential gene expression in peptide-treated DFT1 1426 cells; type: cell-based, Tasmanian devil (Sarcophilus harrisii); settings: 500 μg/mL, 10 h, n = 3, vs vehicle control; for percentage of DE genes: of 15,548 genes; for Fold change, gene E2F2: cyclin transcription factor; for Fold change, gene IL6: cytokine; for Fold change, gene MYD88: immune signaling; for Fold change, gene RUNX1: transcription factor
Procedure: RNAseq was used to characterize the mechanisms underlying the anticancer activity of the peptides. Confluent DFT1 1426 cells (passage number 25) were re-suspended at a concentration of 5 × 10^5 cells/ml and 1 mL seeded into each well of a sterile flat-bottom polystyrene 12-well plate (Corning). Following incubation for 24 h at 35 °C 5% CO2, media was aspirated from the cells and replaced with 500 μL of RPMI 1640 with 2 mM L-glutamine, 10% FBS and 10% AmnioMax II. 500 μL of each 1 mg/mL peptide solution (Saha-CATH1 to 7) was then added to the plate in triplicate, to give a final peptide concentration of 500 μg/mL. […] A vehicle control was also added to the plate in triplicate.
The plate was then incubated for a further 10 h at 35 °C in 5% CO2. This incubation period was selected as the cytotoxicity assay indicated it was sublethal for most of the peptides and would maintain sufficient cell viability to extract intact RNA. Media was then aspirated from the cells, which were washed twice with Dulbecco’s phosphate buffered saline (DPBS) (Sigma-Aldrich).
Total RNA was extracted from each replicate of the peptide-treated and vehicle control cells (n = 3) using the RNeasy mini kit (Qiagen) with cell lysis directly in each well of the 12 well plate. Total RNA was quality assessed using the RNA nano 6000 kit on the Agilent Bioanalyzer with all samples displaying a RIN score between 5 and 9. In total, 24 RNA samples corresponding to three treatments per peptide (Saha-CATH1 to 7) and a vehicle control were submitted to Ramaciotti Centre for Genomics (The University of New South Wales) for sequencing. Illumina TruSeq mRNA libraries were prepared for all samples, which were sequenced as 2 × 150 bp paired-end reads across an SP flowcell on the NovaSeq6000.
Raw reads were quality assessed using FastQC v0.11.8[47], then quality and length trimmed using Trimmomatic v0.39[48] using default parameters. Trimmed reads for each treatment (n = 3) and the control (n = 3) were aligned to the Tasmanian devil reference genome v7.0 (NCBI: GCA_000189315.1[49] using STAR v2.7.8a[50]. Alignments for each treatment were summarized into gene counts using featureCounts in the subread package v1.5.1[51].
Gene counts were used as input for differential expression analysis in R[52]. Genes with less than 50 counts across all samples were removed from the analysis, as these were unlikely to be biologically relevant and lacked sufficient statistical power. Firstly, the data was normalized by trimmed mean of M values (TMM) using edgeR v3.32.1[53] to account for any composition bias between libraries and to give an effective library size for downstream analysis. Multidimensional scaling (MDS) was used to check for variation between treatments using limma v3.36.0[54]. Expression levels were then normalized using upper-quartile normalization in EDAseq v2.24.0[55] to account for differences in distribution between lanes, such as sequencing depth. Differential expression analysis was performed using voom in the limma v3.36.0 package.
(§1) Over-representation analysis of Biological Processes was conducted in clusterProfiler v3.18.1[57]. Statistical significance was adjusted for multiple comparisons using the Benjamini–Hochberg method, and terms were considered significant when p-adj < 0.05. To remove general terms, gene sets larger than 200 were removed, and the simplify function was used to remove redundant GO terms. Further pathway analysis was conducted in IPA (Qiagen)[58], using mammal as the species type and nervous system for the tissue/cell type.

DFT1 1426 cells [2] = type: cell-based, Tasmanian devil (Sarcophilus harrisii); settings: for effect on cell viability (in words): 12-36 h; for concentration toxic to DFT1 1426 cells: summary in the discussion; for decrease in cell viability compared to the growth control: alamarBlue, quadruplicate
Procedure: The DFT1 cell line 1426, derived from a primary DFT1 tumour, was obtained from Menzies Institute for Medical Research, University of Tasmania. The cell line was maintained in RPMI 1640 media with 2 mM L-glutamine (Gibco) supplemented with 10% AmnioMax II (Gibco), 10% heat-inactivated foetal bovine serum (FBS) and 1% penicillin/streptomycin (Sigma-Aldrich), in T75 flasks (Nunc) at 35 °C 5% CO2. Cells were passaged using trypsin–EDTA (Sigma-Aldrich) when 90% confluent.
Toxicity of seven Tasmanian devil cathelicidins against DFT1 1426 cells was determined for twofold dilutions from 500 to 15.62 µg/mL, and four different timepoints (12, 18, 24 and 36 h). Confluent DFT1 1426 cells (passage 22) were re-suspended in RPMI 1640 with 10% FBS and 10% AmnioMax II at a concentration of 5 × 10^5 cells/mL, and 100μL seeded into each well of a sterile flat-bottom 96 well plate (Corning), with individual plates for each timepoint (12, 18, 24 and 36 h). All plates were incubated for 24 h at 35 °C 5% CO2 prior to the cytotoxicity test.
At 0 h, 100 μL of each peptide dilution was then added to each plate in quadruplicate for all timepoints (12, 18, 24 and 36 h), resulting in a final peptide concentrations of 500 μg/mL, 250 μg/mL, 125 μg/mL, 62.50 μg/mL, 31.25 μg/mL and 15.62 μg/mL. […] An untreated growth control of RPMI 1640, a positive control of dimethylsulfoxide (DMSO) (15%) and sterility control of RPMI 1640 only (no cells) were also included for each time point.
For the 12 h timepoint, 10% alamarBlue was immediately added to each well of the plate after addition of the peptide. For the remaining timepoints, plates were incubated for an additional 6, 12 or 24 h after addition of the peptides, then 10% alamarBlue added to each well. For all timepoints, after the addition of alamarBlue cells were incubated for a further 12 h, resulting in a total peptide incubation period of 12, 18, 24 and 36 h. Absorbance of alamarBlue for all timepoints was determined at 570 nm and 630 nm on a Biotek 800 TS microplate reader. Cell viability was calculated according to manufacturer’s instructions and expressed as a percentage of cell survival compared to the untreated growth control.
A one-sample, one-tailed t-test was used to test for significant difference in viability between treated cells and the negative growth control. A one sample, two-tailed t-test was also conducted to ensure there was no significant difference in viability between the negative growth control and the cells treated with the solvent only. Statistical analysis was conducted in R (R Development Core Team 2021).

DFT1 1426 cells [3] = experiment: Ingenuity Pathway Analysis (canonical pathways) of DE genes in treated DFT1 1426 cells; type: cell-based, Tasmanian devil (Sarcophilus harrisii); settings: DE genes of cells treated with 500 μg/mL for 10 h
Procedure: as §1

human cell line A549 = settings: cited from earlier work
Procedure: Here we aimed to identify cathelicidin candidates for future development as anti-DFTD therapeutics. Four Tasmanian devil cathelicidins (Saha-CATH3, 4, 5 and 6) were toxic to DFT1 1426 cells at high concentrations: Saha-CATH3 at concentrations ≥ 62.5 µg/mL; Saha-CATH4 at 500 µg/mL; Saha-CATH5 at concentrations ≥ 125 µg/mL and Saha-CATH6 at concentrations ≥ 250 µg/mL. Previous studies have shown that two of these peptides (Saha-CATH3 and 4) are non-toxic to human cell line A549[44]. The other two (Saha-CATH5 and 6) reduced cell viability at high concentrations (500 µg/mL), resulting in 42% and 5 ...

human red blood cells = settings: cited from earlier work
Text: Cathelicidins have been isolated from many vertebrate taxa[34]–[37]. However, they have undergone gene expansion in marsupials due to the need for additional protection of immunologically naïve young during development in the pouch. […] During development within the pouch, young are exposed to diverse microbial flora, some of which are pathogenic. This has likely encouraged the lineage-specific expansion of cathelicidins in marsupials, resulting in mult ...

[4] = pre-replication complex, RNAseq
[5] = 500 μg/mL, 36 h, DFT1 1426 cells

TFKRKNGSRKNGHRPGGYSLIALGNKKVLKAPYMESI [Saha-CATH2, Tasmanian devil cathelicidin mature peptide, synthesized by ChinaPeptides Co. Ltd to 95% purity]
percentage of DE genes (DFT1 1426 cells [1]): less than 1% | effect on cell viability (in words) (DFT1 1426 cells [2]; 500 µg/mL, DFT1 1426 cells): did not reduce cell viability

KREDFLDQIIRDFRNFIYQKYRRLRDEFRKLRDILSG [Saha-CATH4, Tasmanian devil cathelicidin mature peptide, synthesized by ChinaPeptides Co. Ltd to 95% purity]
IPA z-score, Cyclins and Cell Cycle Regulation (DFT1 1426 cells [3]): -3.317 | IPA z-score, Th17 activation pathway (DFT1 1426 cells [3]): 3.317 | IPA z-score, cell cycle control of chromosomal replication (DFT1 1426 cells [3]): -3.638 | Fold change, gene CCND3 (DFT1 1426 cells [1]; G1-S phase transition, RNAseq): 0.35 | Fold change, gene CCNE1 (DFT1 1426 cells [1]; G1-S phase transition, RNAseq): 0.44 | Fold change, gene CCNE2 (DFT1 1426 cells [1]; G1-S phase transition, RNAseq): 0.31 | Fold change, gene E2F2 (DFT1 1426 cells [1]; RNAseq): 0.28 | Fold change, gene IL6R (DFT1 1426 cells [1]; cytokine receptor, RNAseq): 5.25 | Fold change, gene IL6 (DFT1 1426 cells [1]; RNAseq): 3.73 | Fold change, gene MYD88 (DFT1 1426 cells [1]; RNAseq): 4.15 | percentage of DE genes (DFT1 1426 cells [1]): 18.75% | Fold change, gene CDC6 (DFT1 1426 cells [1]; [4]): 0.29 | Fold change, gene CDC7 (DFT1 1426 cells [1]; [4]): 0.38 | Fold change, gene ORC1 (DFT1 1426 cells [1]; [4]): 0.46 | Fold change, gene RUNX1 (DFT1 1426 cells [1]; RNAseq): 2.43 | concentration toxic to DFT1 1426 cells (DFT1 1426 cells [2]): 500 µg/mL | toxicity to human cell line A549 (in words) (human cell line A549): non-toxic

GIKHILFMAKTKLPRATCTAEIKENCDRKK [Saha-CATH1, Tasmanian devil cathelicidin mature peptide, synthesized by ChinaPeptides Co. Ltd to 95% purity]
percentage of DE genes (DFT1 1426 cells [1]): less than 1% | effect on cell viability (in words) (DFT1 1426 cells [2]; 500 µg/mL, DFT1 1426 cells): did not reduce cell viability

KRMGIFHLFWAGLRKLGNLIKNKIQQGIENFLG [Saha-CATH3]
IPA z-score, Cyclins and Cell Cycle Regulation (DFT1 1426 cells [3]): -2.333 | IPA z-score, Th17 activation pathway (DFT1 1426 cells [3]): 3.317 | Fold change, gene CCND3 (DFT1 1426 cells [1]; G1-S phase transition, RNAseq): 0.62 | Fold change, gene CCNE1 (DFT1 1426 cells [1]; G1-S phase transition, RNAseq): 0.57 | Fold change, gene CCNE2 (DFT1 1426 cells [1]; G1-S phase transition, RNAseq): 0.61 | Fold change, gene E2F2 (DFT1 1426 cells [1]; RNAseq): 0.48 | Fold change, gene IL1R1 (DFT1 1426 cells [1]; cytokine receptor, RNAseq): 2.41 | Fold change, gene IL6R (DFT1 1426 cells [1]; cytokine receptor, RNAseq): 2.88 | Fold change, gene IL6 (DFT1 1426 cells [1]; RNAseq): 4.38 | Fold change, gene MYD88 (DFT1 1426 cells [1]; RNAseq): 2.64 | percentage of DE genes (DFT1 1426 cells [1]): 12.63% | Fold change, gene RUNX1 (DFT1 1426 cells [1]; RNAseq): 2.71 | decrease in cell viability compared to the growth control (DFT1 1426 cells [2]; [5]): more than 50% | incubation period required before exhibiting a similar level of toxicity to Saha-CATH5 (DFT1 1426 cells [2]; 500 μg/mL, DFT1 1426 cells): 18 h | cytotoxic concentration (cell viability reduced by more than 50%) (DFT1 1426 cells [2]; 18 h): 62.5 to 250 µg/mL | concentration toxic to DFT1 1426 cells (DFT1 1426 cells [2]): ≥ 62.5 µg/mL | haemolysis of human red blood cells (in words) (human red blood cells): not haemolytic | toxicity to human cell line A549 (in words) (human cell line A549): non-toxic

STILEDPGKIRERRDIGEEPIQKKQKMYRDQMQ [Saha-CATH7, Tasmanian devil cathelicidin mature peptide, synthesized by ChinaPeptides Co. Ltd to 95% purity]
percentage of DE genes (DFT1 1426 cells [1]): less than 1% | number of differentially expressed (DE) genes (DFT1 1426 cells [1]; out of a total of 15,548 genes): 0 | effect on cell viability (in words) (DFT1 1426 cells [2]; 500 µg/mL, DFT1 1426 cells): did not reduce cell viability

KRIGLGGLIGRILDRLRRLG [Saha-CATH5]
IPA z-score, ERBB2-ERBB3 (DFT1 1426 cells [3]): -4.439 | IPA z-score, ERBB4 signaling (DFT1 1426 cells [3]): -5.425 | IPA z-score, ERBB signaling (DFT1 1426 cells [3]): -6.068 | IPA z-score, Hippo signalling (DFT1 1426 cells [3]): 0.898 | IPA z-score, cell cycle control of chromosomal replication (DFT1 1426 cells [3]): -3.780 | Fold change (FC), gene ERBB3 (DFT1 1426 cells [1]; RNAseq): 0.34 | Fold change, gene CCND1 (DFT1 1426 cells [1]; G1-S phase transition, RNAseq): 0.52 | Fold change, gene CCNE1 (DFT1 1426 cells [1]; G1-S phase transition, RNAseq): 0.37 | Fold change, gene CCNE2 (DFT1 1426 cells [1]; G1-S phase transition, RNAseq): 0.30 | percentage of DE genes (DFT1 1426 cells [1]): 74.05% | Fold change, gene CDC6 (DFT1 1426 cells [1]; [4]): 0.39 | Fold change, gene CDC45 (DFT1 1426 cells [1]; [4]): 0.42 | Fold change, gene ORC1 (DFT1 1426 cells [1]; [4]): 0.54 | decrease in cell viability compared to the growth control (DFT1 1426 cells [2]; [5]): more than 50% | cell viability (% of untreated growth control) (DFT1 1426 cells [2]; 500 µg/mL, after 18 h, mean of quadruplicate): 0% | cytotoxic concentration (cell viability reduced by more than 50%) (DFT1 1426 cells [2]; 36 h): ≥ 125 µg/mL | concentration toxic to DFT1 1426 cells (DFT1 1426 cells [2]): ≥ 125 µg/mL | concentration at which moderately haemolytic (human red blood cells; human red blood cells): above 250 μg/mL | cell survival of human cell line A549 (human cell line A549; 500 µg/mL): 42%
